Holding throughout (type): in vivo, mouse
Test [1] relates to colon cancer-derived Colon26 cells. In words: Example 5: Balb/c mice inoculated with Colon26 cells, oxaliplatin or 5-FU combination. Conditions: antibody 50 μg iv day 5; oxaliplatin 5 mg/kg or 5-FU 30 mg/kg iv 1 hour later; oxaliplatin and antibody single 4, 7, 10, 12, 14, 17 days; 5-FU single only 7 days; combinations from 10 days; Mann-Whitney U. On the procedure: The back of each Balb/c mouse (5 weeks old, female) was intracutaneously inoculated with 3.5×10^5 colon cancer-derived Colon26 cells (50 μL).
To an anti-mouse CCR8 antibody single administration group, 50 μg (200 μL) of an anti-mouse CCR8 antibody (clone SA214G2, BioLegend, Inc.) was intravenously administered 5 days after tumor inoculation, and saline was intravenously administered at a volume of 10 ml/kg body weight 1 hour after the administration of the anti-mouse CCR8 antibody (N=10).
To an oxaliplatin single administration group, 50 μg (200 μL) of an isotype control antibody was intravenously administered 5 days after tumor inoculation, and oxaliplatin (trade name: ELPLAT, Yakult Honsha Company, Limited) at 5 mg/kg body weight was intravenously administered at a volume of 10 mL/kg body weight 1 hour after the administration of the isotype control antibody (N=10). […]
Tumor volumes were measured every 2 to 3 days from 4 days after tumor inoculation (a day before antibody administration). The tumor volume (mm^3) was measured in long diameter (mm)×short diameter (mm)×short diameter (mm)/2, and a significant difference test based on a Mann-Whitney U method (significance level: P<0.05) was conducted.

Test [2] relates to colon cancer-derived CT26 cells. The test is described as follows: Example 12: hCCR8-KI (KI/KI) mice inoculated with CT26 cells, 5-FU combination. To be noted: antibody 0.1 mg/kg iv day 5; 5-FU 30 mg/kg iv 3 hours later; single groups 8, 12, 15 days, combined from 8 days; Mann-Whitney U. Here is the method:
The back of each hCCR8-KI (KI/KI) mouse (14 weeks old, female) prepared in Test Example 10 was intracutaneously inoculated with 3.5×10^5 colon cancer-derived CT26 cells (50 μL).
To an anti-human CCR8 antibody single administration group, an anti-human CCR8 antibody (humanized 10A11 antibody (light chain variable region: IGKV4-1 N53Q+G29R (SEQ ID NO: 59)/heavy chain variable region: IGHV3-15 T94R (SEQ ID NO: 41)) was intravenously administered at 0.1 mg/kg body weight 5 days after tumor inoculation, and saline was intravenously administered 3 hours after the administration of the anti-human CCR8 antibody (N=8). To a 5-FU single administration group, a saline was intravenously administered 5 days after tumor inoculation, and 5-FU (trade name: 5-FU INJECTION 250 KYOWA, Kyowa Hakko Kirin Co. Ltd) was intravenously administered at 30 mg/kg body weight 3 hours after the administration of the saline (N=8). […] Tumor volumes were measured every 3 to 4 days from […] after tumor inoculation (a day before antibody administration). The tumor volume (mm^3) was measured in long diameter (mm)×short diameter (mm)×short diameter (mm)/2, and a significant difference test based on a Mann-Whitney U method (significance level: P<0.05) was conducted.

Test [3] has as its system colon cancer-derived Colon26 cells. In words: Example 6: hCCR8-KI (KI/KI) mice inoculated with Colon26 cells, oxaliplatin combination. Conditions: antibody 15 mg/kg iv day 5; oxaliplatin 5 mg/kg iv 3 hours later; single groups 4, 7, 10, 12, 14, 17, 18 days, combined from 7 days; Mann-Whitney U. Here is the method:
The back of each hCCR8-KI (KI/KI) mouse (12 weeks old, female) prepared in Test Example 10 was intracutaneously inoculated with 3.5×10^5 colon cancer-derived Colon26 cells (50 uL).
To an anti-human CCR8 antibody single administration group, an anti-human CCR8 antibody (humanized 10A11 antibody (light chain variable region: IGKV4-1 N53Q+G29R (SEQ ID NO: 59)/heavy chain variable region: IGHV3-15 T94R (SEQ ID NO: 41))) at 15 mg/kg body weight was intravenously administered 5 days after tumor inoculation, and saline was intravenously administered 3 hours after the administration of the anti-human CCR8 antibody (N=10). To an oxaliplatin single administration group, saline was intravenously administered 5 days after tumor inoculation, and oxaliplatin (trade name: ELPLAT, Yakult Honsha Company, Limited) at 5 mg/kg body weight was intravenously administered 3 hours after the administration of the saline (N=10). […] Tumor volumes were measured every 1 to 3 days from 4 days after tumor inoculation (a day before antibody administration). The tumor volume (mm^3) was measured in long diameter (mm)×short diameter (mm)×short diameter (mm)/2, and a significant difference test based on a Mann-Whitney U method (significance level: P<0.05) was conducted.

Test [4] shares this test system. The test is described as follows: Example 11: hCCR8-KI (KI/KI) mice inoculated with Colon26 cells, oxaliplatin combination (Part 2). To be noted: as Example 6; 2-7B part: oxaliplatin 10, 14, 17 days, antibody 14, 17 days; 19D7 part: oxaliplatin 10, 14 days, antibody 14 days; combinations from 10 days; Student's T one-sided.
Method: To an oxaliplatin single administration group, saline was intravenously administered 5 days after tumor inoculation, and oxaliplatin (trade name: ELPLAT, Yakult Honsha Company, Limited) at 5 mg/kg body weight was intravenously administered 3 hours after the administration of the saline (N=10). To an anti-mouse CCR8 antibody and oxaliplatin combined administration group, an anti-human CCR8 antibody at 15 mg/kg body weight was intravenously administered 5 days after tumor inoculation, and oxaliplatin at 5 mg/kg body weight was intravenously administered 3 hours after the administration of the anti-mouse CCR8 antibody (N=10). To a control group, saline was intravenously administered 5 days after tumor inoculation, and saline was intravenously administered 3 hours after the administration of the saline (N=10). […] Tumor volumes were measured every 1 to 3 days from 4 days after tumor inoculation (a day before antibody administration). The tumor volume (mm^3) was measured in long diameter (mm)×short diameter (mm)×short diameter (mm)/2, and a significant difference test based on a Mann-Whitney U method (significance level: P<0.05) was conducted. […]

Turning to `O=c1[nH]cc(F)c(=O)[nH]1` [5-FU, fluorouracil, reference compound], the “tumor volume as compared to the control group” value is on record as “significant decrease” in test [1] and “no significant decrease” in test [2].

With `O=C1[O][Pt]2([NH][C@@H]3CCCC[C@H]3[NH]2)[O]C1=O` [oxaliplatin, reference compound], the “tumor volume as compared to the control group” value in test [1], in test [3] and in test [4] was “no significant decrease” throughout.

These data come from US20230256092A1, “COMBINED USE OF ANTI-CCR8 ANTIBODY AND CHEMOTHERAPEUTIC AGENT” (Shionogi & Co., Ltd., priority 2020, published 2023).
